Test results: EPA's ToxRefDB 2

How the values were obtained:
rat [1] = settings: Sub-acute repeat dose toxicity, sprague dawley, Oral, Gavage/Intubation, dose end: 28 day, group: systemic
rat [2] = settings: Sub-acute repeat dose toxicity, sprague dawley, Oral, Gavage/Intubation, dose end: 14 day, group: systemic
primate [3] = settings: Sub-acute repeat dose toxicity; Oral; Gavage/Intubation; dose end: 21 day; group: systemic; systemic / in life observation / clinical signs / inappetence + systemic / in life observation / clinical signs / abnormal feces + systemic…
primate [4] = settings: Sub-acute repeat dose toxicity; Oral; Gavage/Intubation; dose end: 19 day; group: systemic; systemic / clinical chemistry / creatinine / creatinine + systemic / clinical chemistry / urea nitrogen / urea nitrogen + systemic / …
primate [5] = settings: Sub-acute repeat dose toxicity; Oral; Gavage/Intubation; dose end: 30 day; group: systemic; systemic / clinical chemistry / protein / protein + systemic / hematology / erythrocyte (rbc) count differential / erythrocyte (rbc) + …
rat [6] = settings: Sub-acute repeat dose toxicity; sprague dawley; Injection; Intravenous; dose end: 5 day; group: systemic; systemic / in life observation / clinical signs / drooping eyelids (ptosis) + systemic / in life observation / clinical signs / reduced …
dog = settings: Sub-acute repeat dose toxicity, beagle, Injection, Intravenous, dose end: 5 day, group: systemic
rat [7] = settings: Sub-acute repeat dose toxicity; sprague dawley; Injection; Intravenous; dose end: 4 day; group: systemic; systemic / in life observation / clinical signs / drooping eyelids (ptosis) + systemic / in life observation / clinical signs / external …
primate [8] = settings: Sub-acute repeat dose toxicity; Injection; Intravenous; dose end: 5 day; group: systemic; systemic / in life observation / clinical signs / [other] + systemic / in life observation / clinical signs / compulsive biting or licking…
rat [9] = settings: Carcinogenicity; fischer; Oral; Feed; dose end: 2 year; group: systemic; systemic / in life observation / body weight / body weight
rat [10] = settings: Sub-acute repeat dose toxicity, sprague dawley, Oral, Gavage/Intubation, dose end: 28 day, group: systemic; remark: listed apart in the source
rat [11] = settings: Prenatal developmental toxicity study; sprague dawley; Oral; Gavage/Intubation; dose end: 7 GD; group: maternal; reproductive / reproductive performance / estrous cycle / corpora lutea + reproductive / reproductive performance / postimplantation loss / …
rat [12] = settings: Developmental neurotoxicity study; sprague dawley; Injection; Subcutaneous; dose end: 345 PND; group: cannot be grouped; systemic / in life observation / body weight / offspring (pup) weight + systemic / in life observation / clinical signs / abnormal movements…
[13] = systemic / pathology gross / full gross necropsy / ulcer
[14] = systemic / pathology gross / full gross necropsy / ulcer + systemic / clinical chemistry / protein / protein + systemic / hematology / …
[15] = systemic / clinical chemistry / calcium / calcium + systemic / clinical chemistry / protein / protein + systemic / hematology / erythrocyte…
[16] = systemic / hematology / erythrocyte (rbc) count differential / erythrocyte (rbc) + systemic / hematology / hematocrit (hct) / hematocrit (…
[17] = systemic / clinical chemistry / bile acids / bile acids
[18] = systemic / clinical chemistry / bile acids / bile acids + systemic / pathology microscopic / gallbladder / hyperplasia + systemic / …
[19] = systemic / organ weight / heart / nos + systemic / organ weight / thymus / nos + systemic / pathology microscopic / ovary / follicle count

NC(=O)n1c(O)c(C(=O)c2cc(Cl)cs2)c2cc(Cl)ccc21
LEL (rat [1]; [13]): 2 mg/kg/day
NEL (rat [1]; [13]): < 2 mg/kg/day
LOAEL (rat [1]; [14]): > 8 mg/kg/day
NOAEL (rat [1]; [14]): ≥ 8 mg/kg/day
LOAEL (rat [2]; [15]): > 100 mg/kg/day
NOAEL (rat [2]; [15]): ≥ 100 mg/kg/day
LEL (rat [2]; [16]): 3 mg/kg/day
NEL (rat [2]; [16]): < 3 mg/kg/day
LEL (primate [3]): 3 mg/kg/day
LOAEL (primate [3]): > 3 mg/kg/day
NEL (primate [3]): < 3 mg/kg/day
NOAEL (primate [3]): ≥ 3 mg/kg/day
LEL (primate [4]): 8 mg/kg/day
LOAEL (primate [4]): > 8 mg/kg/day
NEL (primate [4]): < 8 mg/kg/day
NOAEL (primate [4]): ≥ 8 mg/kg/day
LEL (primate [5]): 2 mg/kg/day
LOAEL (primate [5]): > 6 mg/kg/day
NEL (primate [5]): < 2 mg/kg/day
NOAEL (primate [5]): ≥ 6 mg/kg/day

CNC(=O)[C@H]1O[C@@H](n2cnc3c(NCc4cc(Cl)ccc4OCc4cc(C)no4)ncnc32)[C@H](O)[C@@H]1N
LEL (rat [6]): 5 mg/kg/day
LOAEL (rat [6]): > 150 mg/kg/day
NEL (rat [6]): < 5 mg/kg/day
NOAEL (rat [6]): ≥ 150 mg/kg/day
LEL (dog; [17]): 3 mg/kg/day
NEL (dog; [17]): < 3 mg/kg/day
LOAEL (dog; [18]): > 30 mg/kg/day
NOAEL (dog; [18]): ≥ 30 mg/kg/day
LEL (rat [7]): 5 mg/kg/day
LOAEL (rat [7]): > 5 mg/kg/day
NEL (rat [7]): < 5 mg/kg/day
NOAEL (rat [7]): ≥ 5 mg/kg/day
LEL (primate [8]): 40 mg/kg/day
LOAEL (primate [8]): > 40 mg/kg/day
NEL (primate [8]): 15 mg/kg/day
NOAEL (primate [8]): ≥ 40 mg/kg/day

Cc1ccc2ncccc2c1 [6-Methylquinoline]
LEL (rat [9]): 25 mg/kg/day
LOAEL (rat [9]): > 25 mg/kg/day
NEL (rat [9]): < 25 mg/kg/day
NOAEL (rat [9]): ≥ 25 mg/kg/day

CS(=O)(=O)OCCCCOS(C)(=O)=O [Busulfan]
LOAEL (rat [10]; [19]): > 1.5 mg/kg/day
NEL (rat [10]; [19]): 0.1 mg/kg/day
NOAEL (rat [10]; [19]): ≥ 1.5 mg/kg/day
LEL (rat [10]; systemic / pathology microscopic / ovary / follicle count): 0.5 mg/kg/day
LEL (rat [11]): 1.5 mg/kg/day
LOAEL (rat [11]): > 1.5 mg/kg/day
NEL (rat [11]): 0.5 mg/kg/day
NOAEL (rat [11]): ≥ 1.5 mg/kg/day

C[C@@H]1C[C@H]2[C@@H]3CCC4=CC(=O)C=C[C@]4(C)[C@@]3(F)[C@@H](O)C[C@]2(C)[C@@]1(O)C(=O)CO [Dexamethasone]
LEL (rat [12]): 3 mg/kg/day
LOAEL (rat [12]): > 3 mg/kg/day
NEL (rat [12]): < 3 mg/kg/day
NOAEL (rat [12]): ≥ 3 mg/kg/day
